Data: US7795207B2, “Lipopeptide compositions” (priority 2005, dated 2010)
In brackets after ≈: the same amount, converted by molar mass.

Legend:
fresh venal human blood = conditions: for Reduction of the hemolysis in %: lipopeptide 1,600 mg/l in presence of 2.5% SBE-β-CD
canine blood = assay: Hemolysis test with venal canine blood; type: cell-based; conditions: molar ratio SBE-β-CD:friulimicin B 2.5:1
Method: Ca2Cl2 friulimicin B was dissolved in 0.9% NaCl solution with and without addition of SBE-β-CD. In the batch with SBE-β-CD there was a molar ratio (SBE-β-CD:friulimicin B) of 2.5:1. […] Statements of the content of Ca2Cl2 friulimicin B (in mg/l) refer to the final concentrations of the free acid of the friulimicin B in the reaction batch. The statements of the molar ratio refer to the free acids of friulimicin B and SBE-β-CD, respectively.

[1] = test system: Streptococcus pneumoniae L3TV; assay: Intranasal lung infection model in the mouse; type: in vivo; conditions: mice, total dose 20 mg/kg subcutaneously 1 and 4 hours after infection; SBE-β-CD:friulimicin B 2.5:1; Mann Whitney Test p=0.0159
Method: Herein, Ca2Cl2 friulimicin B serves as an example molecule for the antibiotics of the class of the lipopeptides and sulfobutylether-β-cyclodextrin (SBE-β-CD) as examples for modified β-cyclodextrins. Shown are the results of a study with an intranasal lung infection model in the mouse.
Female mice (CFW-1 (Harlan Winkelmann, Germany)) were infected intranasally with Streptococcus pneumoniae L3TV (1*10^6 CFU/mouse). 1 and 4 hours after the infection, the animals were subcutaneously administered a total dose of 20 mg Ca2Cl2 friulimicin B/kg with and without SBE-BCD (5%). 24-hours after the infection, a determination of the number of germs in the lung was performed by plating-out of a tissue disintegration on agar plates in a manner the person skilled in the art is familiar with.

Female mice (CFW-1) = assay: Acute toxicity in mice after one-time iv administration; type: in vivo
Method: Female mice (CFW-1 (Harlan Winkelmann, Germany)) were administered once (iv) the Ca2Cl2 friulimicin B solutions with and without SBE-β-CD. The mortality rate of the animals within 24 hours was determined.

[2] = test system: Staphylococcus aureus ATCC 29213; assay: Minimum inhibitory concentration (agar dilution, CLSI); type: cell-based
Method: (§1) The effects of cyclodextrins on the antibiotic activity von Ca2Cl2 friulimicin B were investigated by in vitro experiments about the growth inhibition of Gram-positive bacteria. Herein, the minimum inhibitory concentration for the growth inhibition was determined by cultivation of the bacteria on nutritious agar (agar dilution) according to the CLSI (previously NCCLS) rules (National Committee for Clinical Laboratory Standards. 2003. Methods for dilution antimicrobial susceptibility tests for bacteria that grow aerobically; approved standard—6th ed. Document M7-A6. Clinical and Laboratory Standards Institute, Wayne, Pa., USA). Different molar mixture ratios of the lipopeptide Ca2Cl2 friulimicin B were tested with SBE-β-CD in Ca ions-adjusted Müller-Hinton medium. The Gram-positive strains tested for the cultivation methods were: • Staphylococcus carnosus ATCC 51365 {DSM 20501) • Staphylococcus aureus ATCC 29213 (DSM 2569) • Staphylococcus aureus ATCC 33592 (DSM 11729) • Staphylococcus epidermidis ATCC 12228 (DSM 1798)

[3] = test system: Staphylococcus aureus ATCC 33592; assay: as above; type: cell-based
Method: as §1

[4] = test system: Staphylococcus carnosus ATCC 51365; assay: as above; type: cell-based
Method: as §1

[5] = test system: Staphylococcus epidermidis ATCC 12228; assay: as above; type: cell-based
Method: as §1

E. faecalis ATCC 29212 = assay: Minimum inhibitory concentration in presence of HSA; type: cell-based, Enterococcus faecalis
[6] = literature (Oleson et al. 2000); cited from earlier work
[7] = literature; cited from earlier work
[8] = molar ratio Friulimicin:SBE-β-CD 1:0
[9] = molar ratio Friulimicin:SBE-β-CD 1:2.5
[10] = molar ratio Friulimicin:SBE-β-CD 1:4

## CCC(C)CCCCCC=CCC(=O)NC(CC(=O)O)C(=O)NC1C(=O)N2CCCCC2C(=O)NC(C(C)C(=O)O)C(=O)NC(CC(=O)O)C(=O)NCC(=O)NC(CC(=O)O)C(=O)NCC(=O)NC(C(C)N)C(=O)NC(C(C)C)C(=O)N2CCCC2C(=O)NC1C (stereo not drawn) [Amphomycin, reference compound]
Fresh venal human blood
  Reduction of the hemolysis in %: 99.6%

## CCCCCCCCCCCCCCCCCC(=O)NC(CC(N)=O)C(=O)NC1C(=O)N2CCCCC2C(=O)NC(C(C)C(=O)O)C(=O)NC(CC(=O)O)C(=O)NCC(=O)NC(CC(=O)O)C(=O)NCC(=O)NC(C(C)N)C(=O)NC(C(C)C)C(=O)N2CCCC2C(=O)NC1C (stereo not drawn) [CBS000203]
Fresh venal human blood
  Reduction of the hemolysis in %: 41.3%

## CCCCC/C=C\C/C=C\C/C=C\CCCCC(=O)NC(CC(N)=O)C(=O)NC1C(=O)N2CCCCC2C(=O)NC(C(C)C(=O)O)C(=O)NC(CC(=O)O)C(=O)NCC(=O)NC(CC(=O)O)C(=O)NCC(=O)NC(C(C)N)C(=O)NC(C(C)C)C(=O)N2CCCC2C(=O)NC1C (stereo not drawn) [CBS000204]
Fresh venal human blood
  Reduction of the hemolysis in %: 87.0%

## CC(C)C1NC(=O)C(C(C)N)NC(=O)CNC(=O)C(CC(=O)O)NC(=O)CNC(=O)C(CC(=O)O)NC(=O)C(C(C)C(=O)O)NC(=O)C2CCCCN2C(=O)C(NC(=O)C(CC(N)=O)NC(=O)c2ccc(CCc3ccc(CCc4ccccc4)cc3)cc2)C(C)NC(=O)C2CCCN2C1=O (stereo not drawn) [CBS000217]
Fresh venal human blood
  Reduction of the hemolysis in %: 99.5%

## CC(C)CCCCCCC/C=C\CC(=O)N[C@@H](CC(N)=O)C(=O)N[C@@H]1C(=O)N2CCCC[C@@H]2C(=O)N[C@@H]([C@H](C)C(=O)O)C(=O)N[C@@H](CC(=O)O)C(=O)NCC(=O)N[C@@H](CC(=O)O)C(=O)NCC(=O)N[C@H]([C@H](C)N)C(=O)N[C@@H](C(C)C)C(=O)N2CCC[C@H]2C(=O)N[C@@H]1C [Ca2Cl2 friulimicin B, friulimicin B]
Canine blood; friulimicin B 800 mg/l
  Reduction of the hemolysis by the addition of SBE-β-CD: 55%
Canine blood; friulimicin B 5,000 mg/l
  Reduction of the hemolysis by the addition of SBE-β-CD: 100%
Fresh venal human blood
  Effect of HP-β-CD on the induced hemolysis: suppress
[1]
  Antibiotic effect (number of germs in the lung 24 hours after infection), with vs without SBE-β-CD: increases the antibiotic effect
Female mice (CFW-1); 300 mg/kg iv once, with addition of SBE-β-CD (molar ratio 2.5:1)
  Mortality rate within 24 hours: 0% (0/3)
Female mice (CFW-1); 300 mg/kg iv once, without addition of SBE-β-CD
  Mortality rate within 24 hours: 0% (0/3)
Female mice (CFW-1); 350 mg/kg iv once, without addition of SBE-β-CD
  Mortality rate within 24 hours: 66% (2/3)
Female mice (CFW-1); 400 mg/kg iv once, with addition of SBE-β-CD (molar ratio 2.5:1)
  Mortality rate within 24 hours: 0% (0/3)
Female mice (CFW-1); 400 mg/kg iv once, without addition of SBE-β-CD
  Mortality rate within 24 hours: 100% (3/3)
[2]; [8]
  Antibiotic activity (MIC): 0.5 µg/mL
[2]; [9]
  Antibiotic activity (MIC): 0.5 µg/mL
[2]; [10]
  Antibiotic activity (MIC): 0.5 µg/mL
[3]; [8]
  Antibiotic activity (MIC): 1 µg/mL
[3]; [9]
  Antibiotic activity (MIC): 1 µg/mL
[3]; [10]
  Antibiotic activity (MIC): 1 µg/mL
[4]; [8]
  Antibiotic activity (MIC): 0.5 µg/mL
[4]; [9]
  Antibiotic activity (MIC): 0.5 µg/mL
[4]; [10]
  Antibiotic activity (MIC): 0.5 µg/mL
[5]; [8]
  Antibiotic activity (MIC): 0.5 µg/mL
[5]; [9]
  Antibiotic activity (MIC): 0.5 µg/mL
[5]; [10]
  Antibiotic activity (MIC): 0.5 µg/mL

## CC(C)CCCCCCC/C=C\CC(=O)N[C@@H](CC(N)=O)C(=O)N[C@@H]1C(=O)N2CCCC[C@@H]2C(=O)N[C@@H]([C@H](C)C(=O)O)C(=O)N[C@@H](CC(=O)O)C(=O)NCC(=O)N[C@@H](CC(=O)O)C(=O)NCC(=O)N[C@H]([C@H](C)N)C(=O)N[C@@H](C(C)C)C(=O)N2CCC[C@H]2C(=O)N[C@@H]1C [Na2 friulimicin B, friulimicin B]
E. faecalis ATCC 29212; medium addition 0% HSA
  MIC value: 4 µg/mL
E. faecalis ATCC 29212; medium addition 4% HSA
  MIC value: >64 µg/mL
[2]; medium addition 0% HSA
  MIC value: 2 µg/mL (≈ 1.53 µM)
[2]; medium addition 4% HSA
  MIC value: 8 µg/mL (≈ 6.14 µM)

## CCCCCCCCCC(=O)N[C@@H](Cc1c[nH]c2ccccc12)C(=O)N[C@H](CC(N)=O)C(=O)N[C@@H](CC(=O)O)C(=O)N[C@@H]1C(=O)NCC(=O)N[C@@H](CCCN)C(=O)N[C@@H](CC(=O)O)C(=O)N[C@H](C)C(=O)N[C@@H](CC(=O)O)C(=O)NCC(=O)N[C@H](CO)C(=O)N[C@@H]([C@H](C)CC(=O)O)C(=O)N[C@@H](CC(=O)c2ccccc2N)C(=O)O[C@@H]1C [daptomycin]
[6]
  Toxicity on the skeletal muscle: damages the skeletal muscle

## iturin A
[7]
  Hemolytic action: act in a hemolytic manner

## lichenysin
[7]
  Hemolytic action: act in a hemolytic manner

## surfactin A
[7]
  Hemolytic action: act in a hemolytic manner
